In ChEMBL document CHEMBL1130300, “Antiinflammatory effects of escins Ia, Ib, IIa, and IIb from horse chestnut, the seeds of Aesculus hippocastanum L” (Bioorg Med Chem Lett, 1997) one finds Activity data, which are given here for 5 molecules.

Common to all, as to type: functional, organism-based
Test [1] relates to Rattus norvegicus. The experiment in a line: Compound was tested for dose-dependent inhibition in increase of vascular permeability induced by intracutaneous injection of serotonin in rat at 200 mg/kg, p.o.; NI means No inhibition. Also noted: dose 200 mg/kg.
The test system of test [2] is Rattus norvegicus. In words: Compound at 50-200 mg/kg, p.o, dose-dependently inhibited the increase of vascular permeability induced by intracutaneous injection of histamine in rat; inhibited.
Test [3] deals with Mus musculus. The experiment in a line: Compound at 25-200 mg/kg, p.o., dose-dependently inhibited the scratching behavior induced by subcutaneous injection […]; inhibited.
Test [4] deals with Mus musculus. The experiment in a line: Compound at 50-200 mg/kg, p.o, dose-dependently inhibited the increase of vascular permeability induced by intraperitoneal injection of acetic acid in mice; inhibited.
Test [5] relates to Rattus norvegicus. In words: Compound was tested for dose-dependent inhibition in increase of vascular permeability induced by intracutaneous injection of serotonin in rat at 50-200 mg/kg, p.o; Inhibited.
In test [6] the test system is Rattus norvegicus. In words: Compound at 200 mg/kg, p.o., also significantly inhibited the hind paw edema induced by carrageenan at first phase in rat; inhibited. Details: dose 200 mg/kg.
The test system of test [7] is Rattus norvegicus. In words: Compound at 200 mg/kg peroral dose in rat showed tendency to inhibit the second phase; inhibited. Details: dose 200 mg/kg.
Test [8] deals with Rattus norvegicus. The experiment in a line: Compound at 200 mg/kg peroral dose in rat showed significant suppression at second phase; suppressed. Details: dose 200 mg/kg.

The source made the active and inactive calls. No cut-off for these calls is given here.

In the case of `CC1(C)CC2C3=CCC4[C@@]5(C)CC[C@H](O[C@@H]6O[C@H](C(=O)O)[C@@H](O[C@@H]7O[C@H](CO)[C@@H](O)[C@H](O)[C@H]7O)[C@H](O)[C@H]6O[C@@H]6O[C@H](CO)[C@@H](O)[C@H](O)[C@H]6O)[C@](C)(CO)C5CC[C@@]4(C)[C@]3(C)C[C@@H](O)[C@@]2(CO)[C@@H](O)[C@@H]1O` (stereo not given in full), the outcome in the test on Rattus norvegicus [1] was inactive.
The same measure, in the same setting: the same measure for `CC1(C)CC2C3=CCC4[C@@]5(C)CC[C@H](O[C@@H]6O[C@H](C(=O)O)[C@@H](O[C@@H]7O[C@H](CO)[C@@H](O)[C@H](O)[C@H]7O)[C@H](O)[C@H]6O[C@@H]6OC[C@@H](O)[C@H](O)[C@H]6O)[C@](C)(CO)C5CC[C@@]4(C)[C@]3(C)C[C@@H](O)[C@@]2(CO)[C@@H](O)[C@@H]1O` (stereo not given in full): “inactive”.
For `C/C=C(/C)C(=O)O[C@H]1[C@H](OC(C)=O)[C@@]2(CO)C(CC1(C)C)C1=CCC3[C@@]4(C)CC[C@H](O[C@@H]5O[C@H](C(=O)O)[C@@H](O[C@@H]6O[C@H](CO)[C@@H](O)[C@H](O)[C@H]6O)[C@H](O)[C@H]5O[C@@H]5OC[C@@H](O)[C@H](O)[C@H]5O)[C@](C)(CO)C4CC[C@@]3(C)[C@]1(C)C[C@H]2O` (stereo not given in full), the Activity entry with Rattus norvegicus [2], in the test with Mus musculus [3], with Mus musculus [4], in the test with Rattus norvegicus [5], with Rattus norvegicus [6] and in the test on Rattus norvegicus [7] was “inhibited” each time.
Consider `C/C=C(\C)C(=O)O[C@H]1[C@H](OC(C)=O)[C@@]2(CO)C(CC1(C)C)C1=CCC3[C@@]4(C)CC[C@H](O[C@@H]5O[C@H](C(=O)O)[C@@H](O[C@@H]6O[C@H](CO)[C@@H](O)[C@H](O)[C@H]6O)[C@H](O)[C@H]5O[C@@H]5O[C@H](CO)[C@@H](O)[C@H](O)[C@H]5O)[C@](C)(CO)C4CC[C@@]3(C)[C@]1(C)C[C@H]2O` (stereo not given in full), for which the Activity result in the test with Rattus norvegicus [2], in the test with Mus musculus [3], in the test on Mus musculus [4], in the test with Rattus norvegicus [5], in the test on Rattus norvegicus [6] and with Rattus norvegicus [8] was “inhibited” each time.
On to `C/C=C(\C)C(=O)O[C@H]1[C@H](OC(C)=O)[C@@]2(CO)C(CC1(C)C)C1=CCC3[C@@]4(C)CC[C@H](O[C@@H]5O[C@H](C(=O)O)[C@@H](O[C@@H]6O[C@H](CO)[C@@H](O)[C@H](O)[C@H]6O)[C@H](O)[C@H]5O[C@@H]5OC[C@@H](O)[C@H](O)[C@H]5O)[C@](C)(CO)C4CC[C@@]3(C)[C@]1(C)C[C@H]2O` (stereo not given in full), for which the Activity result in the test on Rattus norvegicus [2], in the test on Mus musculus [3], with Mus musculus [4], in the test on Rattus norvegicus [5], in the test on Rattus norvegicus [6] and in the test on Rattus norvegicus [7] was “inhibited” throughout.
